Results from patent US10768179B2, “Method for predicting responsiveness to cancer treatment using p300-inhibiting compound” (National Cancer Center, priority 2014, dated 2020).

Key:
[1] = test system: CBP-mutated cancer cells; test: Apoptosis analysis by Annexin V/PI staining after C646 treatment; assay type: cell-based; details: 48 hours and 96 hours after C646 treatment; FIG. 5B
Description: In order to detect apoptotic cells by flow cytometry, Annexin V-FITC/PI apoptosis detection kit (F. Hoffmann-La Roche, Ltd.) was used according to the manufacturer's instruction manual. Briefly, the cell pellet was suspended in a 1× binding buffer and incubated with Annexin V-FITC and PI for 20 minutes in the dark. Subsequently, the fluorescence of the cells was analyzed by flow cytometry.

[2] = test system: CBP-mutated lung cancer cells and lymphoma cells; test: Sensitivity (survival rate, IC50) of cancer cell lines to p300 inhibitor C646; assay type: cell-based
Description: A549, H1299, H157, SQ5, H1703, LK2, H520 (NSCLC), RL, Loucy, RC-K8, U2932, Ramos, Farage, SUP-T1, WSU-NHL, VAL, SUDHL5, Jurkat, TE8, and TE10 were separately cultured in RPMI-1640 or DMEM supplemented with 10% fetal bovine serum (FBS). MRC-5 cells (normal fibroblasts), HEK293T cells (immortalized renal epithelial cells), and RPE-1 cells (immortalized retinal epithelial cells) were separately cultured in DMEM supplemented with 10% FBS.
The viability was determined by examining intracellular ATP level using CellTiter-Glo Luminescent Cell Viability Assay kit (Promega Corp.). Each cancer cell line was transfected with siRNA (50 nM) using Lipofectamine RNAiMAX (Invitrogen Corp.). Two days later, the cells were trypsinized, counted, and reseeded in specified numbers in 96-well plate. In order to measure the cell viability, CellTiter-Glo Luminescent Cell Viability Assay kit (Promega Corp.) was added to the cells, and […] was measured using Envision (PerkinElmer, Inc.).

With `CC1=NN(c2ccc(C(=O)O)cc2)C(=O)/C1=C\c1ccc(-c2cc(C)c(C)cc2[N+](=O)[O-])o1` [C646] the “induction of apoptosis (Annexin V stainability)” value [1] was “specifically suppresses the growth of CBP-mutated cancer cells by inducing apoptosis”, the “IC50 value for C646” value ([2]; CBP-mutated vs CBP-proficient cancer cells, Student's t test, p<0.01, FIGS. 3B and 3D) was “low tendency relative to CBP-proficient cancer cells” and the “sensitivity to C646 (survival rates)” value ([2]; CBP-mutated vs CBP-proficient lung cancer and lymphoma cell lines, FIGS. 3A and 3C) was “higher sensitivity of the CBP-mutated cancer cells to C646 than that of the CBP-proficient cancer cells”.
